Experimental data as given in paper PMC5703966, “Systemic clearance and brain distribution of carbazole-based cyanine compounds as Alzheimer’s disease drug candidates” (Scientific Reports, 2017).
Where two headings read alike, the source gives them in different places.

Columns and labels:
Aβ(1–40) = tested on: Aβ(1–40); design: method as in PMID 22086555; conditions: cited from earlier work
[1] = Liver microsomes stability with NADPH; type: in vitro ADME, mouse; conditions: for microsomal CLint at 1 μM: ICR/CD-1, liver microsomes, NADPH, read-out: Microsomes Cl int,app; for microsomal CLint at 1 μM / CLint scaled at 1 μM: pH 7.4; for CLint scaled at 1 μM: ICR/CD-1, mouse, liver microsomes, read-out: Microsomes Cl int,scaled; for Microsomes scaled Cl hep: well-stirred model; for Microsomes Cl u, int,app: Cl int,app / f u,mic
[2] = Hepatocyte binding by RED device; type: in vitro ADME
Method: The blood cell partitioning was calculated as follows. […] Plasma, liver microsomes and hepatocyte binding by RED device The stability of the compounds in plasma, liver microsomes and hepatocyte were studied to ensure the reliability of the binding data. Hepatocyte was deactivated by leaving them on a bench for 2 days and going through a freeze thaw cycle thereafter. […] Natural logarithm of peak area ratios (compound peak area normalized by IS peak area) were plotted against time and half-life calculated. The spiked plasma solutions, microsomes and hepatocytes (400 µL) after observing stability were placed into the sample chamber (indicated by the red ring) with 400 µL of PBS into the adjacent chamber. […] The experimental procedure outlined in the Thermo Scientific RED device systems brochure was adopted in the present study . The several positive controls were assayed (Table S4). […] For control experiments, NADPH, UDPGA and/or liver microsomes were omitted from these incubations. […] InVitroGROTM HT Medium was used for thawing suspension of cryopreserved hepatocytes. Incubations were conducted in a 96-well flat-bottom polystyrene plate in duplicate. […] 60, 90, 120 minutes by the addition of 4 folds ACN containing berberine chloride as internal standard 5

P-gp = P-gp (Homo sapiens, UniProt P08183); test: Efflux transporter identification in Caco-2 cell with P-gp specific inhibitors; conditions: efflux ratio reduced by PSC833 and verapamil, concentration-dependent
[3] = Plasma binding by RED device; type: in vitro ADME, mouse; conditions: for plasma binding: mice; for f u,plasma %: mouse plasma, RED device, 4 h, 37 °C; on all read-outs here: tested at 0.4 µM
Method: Nonspecific binding in plasma (f u, plasma), microsomes (f u, mic) and hepatocyte (f u, hep) were determined using the method seen in supplemental information (Supplemental Methods). […]
All validation compounds were incubated at 37 °C over 4 h, and in triplicate. For […]
plasma stability, 10 mM DMSO solutions of SLM and SLOH were diluted to 40 µM (10% DMSO). Plasma […]
shaking water bath (60 oscillations/min approx.). The assay was started by addition of 6 µL aliquots to […]
the plasma (final DMSO incubation concentration 0.1%). […]
MS/MS. Natural logarithm of peak area ratios (compound peak area normalized by IS peak area) were plotted against time and half-life calculated. […]
placed into the sample chamber (indicated by the red ring) with 400 µL of PBS into the adjacent chamber.
The plate was sealed with a self-adhesive lid and incubated at 37 °C on an orbital shaker (1.5 g approx.) for 4 h. Aliquots (100 µL) were removed from each side of the insert, and analyzed after protein precipitation using 4 folds acetonitrile (ACN) containing berberine chloride as internal standard (IS) by LC-MS/MS (Analytical me thod seen below). The experimental procedure outlined in the Thermo Scientific RED device systems brochure was adopted in the present study . […]

OATP1B3 = molecular target: T1, OATP1B3 (Homo sapiens, UniProt Q9NPD5); test: OATP substrate identification, uptake in stably transfected HEK293 cells; conditions: 1 and 10 μM, 10 mins
T1 sequence (Q9NPD5 1-702): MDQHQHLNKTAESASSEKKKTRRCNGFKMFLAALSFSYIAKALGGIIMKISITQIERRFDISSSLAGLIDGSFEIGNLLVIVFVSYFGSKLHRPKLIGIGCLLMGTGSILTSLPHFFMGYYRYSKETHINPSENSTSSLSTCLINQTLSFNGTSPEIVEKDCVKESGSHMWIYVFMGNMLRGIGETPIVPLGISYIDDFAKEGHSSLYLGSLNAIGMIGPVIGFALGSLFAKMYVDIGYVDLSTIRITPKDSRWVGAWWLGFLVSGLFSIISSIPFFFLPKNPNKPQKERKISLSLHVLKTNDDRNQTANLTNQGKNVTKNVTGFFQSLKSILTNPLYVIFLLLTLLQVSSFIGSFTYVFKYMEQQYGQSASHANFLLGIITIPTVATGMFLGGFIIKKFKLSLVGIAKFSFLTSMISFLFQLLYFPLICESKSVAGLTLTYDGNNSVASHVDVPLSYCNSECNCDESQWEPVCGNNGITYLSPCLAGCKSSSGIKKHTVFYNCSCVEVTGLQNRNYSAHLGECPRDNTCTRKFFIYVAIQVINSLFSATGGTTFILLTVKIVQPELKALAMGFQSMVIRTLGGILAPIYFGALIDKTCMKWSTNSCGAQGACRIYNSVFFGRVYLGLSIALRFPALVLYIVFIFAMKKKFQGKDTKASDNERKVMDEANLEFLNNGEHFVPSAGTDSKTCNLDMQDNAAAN
Method: Daily changes of medium were performed and on the second day after seeding using medium containing 10 mM sodium butyrate.
Stably transfected HEK cells and control vector-transfected HEK293 cells were first washed (3 × 1 mL) with prewarmed HBSS (pH 7.4) and then were incubated with 250 μL of HBSS containing compounds at concentrations of 1 and 10 μM. Cells were incubated for 10 mins at 37 °C for all experiments. After incubation, uptake was stopped by aspirating the incubation solution and washing each well 3 times with 200 μL of ice-old HBSS. The cells were lysed in 150 μL of 1 M NaOH for 30 mins, and then neutralized by adding equal volumes of 1 M HCl.
The following equations (3 and 4) were used to calculate the uptake rates (U, pmol/mg/min) and the OATP1B1, OATP1B3, OATP2B1 and OATP1A2 uptake ratio (UR):3 U=Clysate/P×T 4 UR=UOATP1B1/1B3/2B1/1A2/UHEK293−MOCK where C lysate is the compound concentration in cell lysates. P is the protein concentration in cell lysates. T is the incubation time. U OATP1B1/1B3/2B1/1A2 is the uptake rate obtained in HEK293 stably transfected OATP1B1, OATP1B3, OATP2B1 or OATP1A2 transportation. U HEK293-MOCK is the uptake rate obtained in control vector-transfected HEK293 transportation.

[4] = Liver microsomes stability with NADPH; type: in vitro ADME; conditions: human; for CLint scaled at 1 μM / microsomal CLint at 1 μM: liver microsomes, pH 7.4; for CLint scaled at 1 μM: read-out: Microsomes Cl int,scaled; for Microsomes scaled Cl hep: well-stirred model; for Microsomes Cl u, int,app: Cl int,app / f u,mic; for microsomal CLint at 1 μM: NADPH, read-out: Microsomes Cl int,app
[5] = human deactivated hepatocytes 0.5 million cells/mL
[6] = mouse deactivated hepatocytes 0.5 million cells/mL

P-gp, sequence (P08183 whole entry): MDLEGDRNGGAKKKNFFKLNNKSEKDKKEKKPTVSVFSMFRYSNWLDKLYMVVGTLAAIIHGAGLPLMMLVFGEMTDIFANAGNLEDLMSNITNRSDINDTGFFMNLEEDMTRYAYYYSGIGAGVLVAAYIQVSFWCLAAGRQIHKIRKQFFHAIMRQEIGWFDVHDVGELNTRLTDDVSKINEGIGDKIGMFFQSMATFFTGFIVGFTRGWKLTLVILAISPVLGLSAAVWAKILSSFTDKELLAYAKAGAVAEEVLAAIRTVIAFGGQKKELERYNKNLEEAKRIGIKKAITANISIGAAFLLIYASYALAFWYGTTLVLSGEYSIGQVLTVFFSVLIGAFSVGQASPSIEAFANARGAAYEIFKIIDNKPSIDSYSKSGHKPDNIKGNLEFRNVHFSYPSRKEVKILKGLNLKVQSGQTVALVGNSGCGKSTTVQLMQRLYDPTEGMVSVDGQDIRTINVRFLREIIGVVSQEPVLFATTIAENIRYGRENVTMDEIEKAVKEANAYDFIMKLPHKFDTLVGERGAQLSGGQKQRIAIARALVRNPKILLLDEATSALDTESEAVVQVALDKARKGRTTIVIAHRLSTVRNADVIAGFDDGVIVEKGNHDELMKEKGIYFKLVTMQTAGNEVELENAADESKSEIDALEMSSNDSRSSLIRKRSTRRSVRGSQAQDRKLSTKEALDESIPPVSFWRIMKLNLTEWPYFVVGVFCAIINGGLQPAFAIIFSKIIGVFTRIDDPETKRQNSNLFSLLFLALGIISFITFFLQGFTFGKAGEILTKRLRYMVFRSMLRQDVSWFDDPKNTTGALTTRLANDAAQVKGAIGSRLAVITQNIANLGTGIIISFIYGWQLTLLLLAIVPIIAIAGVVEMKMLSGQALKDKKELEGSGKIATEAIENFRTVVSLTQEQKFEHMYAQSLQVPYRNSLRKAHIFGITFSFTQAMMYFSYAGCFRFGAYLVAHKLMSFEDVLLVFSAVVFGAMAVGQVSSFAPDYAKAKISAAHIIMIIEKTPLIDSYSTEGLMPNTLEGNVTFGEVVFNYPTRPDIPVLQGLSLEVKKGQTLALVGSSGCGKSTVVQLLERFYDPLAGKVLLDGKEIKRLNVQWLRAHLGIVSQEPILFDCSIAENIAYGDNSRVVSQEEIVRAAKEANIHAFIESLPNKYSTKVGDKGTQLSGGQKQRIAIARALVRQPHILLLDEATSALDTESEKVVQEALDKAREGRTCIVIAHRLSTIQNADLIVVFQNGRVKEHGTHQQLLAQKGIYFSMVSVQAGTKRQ

Compound | affinity for Aβ(1–40) (Aβ(1–40)) | microsomal CLint at 1 μM ([1]; mouse) | CLint scaled at 1 μM [1] | Microsomes scaled Cl hep ([1]; mouse) | Microsomes Cl u, int,app ([1]; mouse) | f u,hep, % [2, 5] | f u,hep, % [2, 6] | P-gp substrate identification (P-gp) | plasma binding [3] | f u,plasma % [3] | uptake by OATP1B3 transfected HEK293 versus WT cells (OATP1B3) | CLint scaled at 1 μM [4] | Microsomes scaled Cl hep [4] | Microsomes Cl u, int,app [4] | microsomal CLint at 1 μM [4] | Microsomes Cl u, int,scaled ([1]; mouse)
COCCOCCn1c2ccccc2c2cc(/C=C/c3cc[n+](C)c4ccccc34)ccc21.[I-] [SLM, (E)-4-(2-(9-(2-(2-methoxyethoxy)ethyl)-9H-carbazol-3-yl)-vinyl)-1-methyl-quinolin-1-iumiodide] | reasonably good affinity | 30 µL/min/mg | 130 ± 9 mL/min/kg | 16 ± 0.833 mL/min/kg | 0.300 ± 0.0200^$$ mL/min/mg | 11.0 ± 0.870^$$ % | 15.0 ± 4.60% | substrates | > 95% | 1.70 ± 0.380^$ % | no significant differences | 140 ± 19 mL/min/kg | 1.67 ± 0.167 mL/min/kg | 1.50 ± 0.200^$ mL/min/mg | 110 ± 20 µL/min/mg | –
COCCOCCn1c2ccccc2c2cc(/C=C/c3cc[n+](CCO)c4ccccc34)ccc21 [SLOH, (E)-1-(2-hydroxyethyl)-4-(2-(9-(2-(2-metho-xyethoxy)-ethyl)-9H-carbazol-3-yl)vinyl) quinolin-1-ium chloride] | reasonably good affinity | 30 µL/min/mg | 110 ± 13 mL/min/kg | 18.3 ± 1.67 mL/min/kg | 0.170 ± 0.0200^$$ mL/min/mg | 5.50 ± 0.730^$$ % | 16.0 ± 5.50% | substrates | > 95% | 3.50 ± 0.700^$ % | no significant differences | 82 ± 13 mL/min/kg | 2 ± 0.333 mL/min/kg | 1.00 ± 0.160^$ mL/min/mg | 70 ± 10 µL/min/mg | 680 ± 75.0^$$ mL/min/Kg
